Among the data in article PMC2863073 (Glia, 2008) are IC50 values, retold here.

The test system of this experiment is oligodendrocyte NMDA receptor (NR1-containing; probably NR1, NR2C and NR3). Briefly: whole-cell patch clamp of NMDA-evoked current, […] min memantine pre-exposure. The experiment is classed as cell-based, Rattus norvegicus.

The structures appear in SMILES notation.

The term IC50 denotes the concentration that inhibits the measured activity by half. Consider `CC12CC3CC(C)(C1)CC(N)(C3)C2` [memantine], for which the IC50 is 54 µM.
